Assay results as given in patent US10973857B2, “Mesenchymal stem cell and use thereof for treatment of muscle injury and muscle-associated diseases” (EXOSTEM BIOTEC LTD., priority 2016, dated 2021).

test system: MyoD; test: Myogenic priming of MSCs, MyoD-GFP reporter; type: cell-based, human; details: Nanog mRNA transfection prior to co-culture (Protocol B); one day incubation with 5-AZA (Protocol C)
Source text: In light of the ability of MSCs to induce muscle regeneration, reduce muscle fibrosis and increase engraftment via paracrine effects, a method of supplementing the therapeutic effect of MSCs was developed. This method, called “myogenic priming”, increased the cell's paracrine effects on muscle cells on the one hand and promoted the MSC's own differentiation to muscle cells on the other. This priming increased the ability of MSCs to differentiate into satellite cells that undergo asymmetric division and to myoblasts that fuse with existing muscle fibers and deliver dystrophin to the cells. It was hypothesized that inducing MyoD expression in the cells would be one method of priming. This was tested by culturing CH- and UC-MSCs containing a MyoD-GFP reporter, in trans-well plates with human muscle cells (Protocol A). In this way, the extracellular vesicles and secreted factors from the muscle cells were able to contact the MSCs. A 3-day incubation resulting in a greater than 2-fold increase in MyoD expression as compared to control cells that had not be exposed to muscle cells (FIG. 3).
In addition to co-cultures with muscle cells, various methods were employed that would induced transient stem cell characteristics in MSCs to increase their muscle differentiation abilities in response to subsequent factors. […]

Molecule	myoD expression
Nc1ncn([C@@H]2O[C@H](CO)[C@@H](O)[C@H]2O)c(=O)n1 [5-azacytidine]	increased

test system: MSCs; test: Priming of MSCs to a stem cell phenotype (Protocols D and E); type: cell-based; details: 24 hours, followed by media with a pH of about 6 for 1 hour or hypoxia for 24 hours (Protocol D)
Method: These incubations were also performed after first transfecting the MSCs with the modified Nanog mRNA.

Molecule	primed stem cell phenotype in MSCs
C[C@@H](N)[C@H]1CC[C@H](C(=O)Nc2ccncc2)CC1 [Y-27632]	induced a primed stem cell phenotype

same assay, conditions: incubation for 1-6 days (Protocol E)

Molecule	priming of MSCs
N[C@@H]1C[C@H]1c1ccccc1 (racemic) [tranylcypromine]	primed the MSCs to a degree
Nc1nccc2c1ncn2[C@@H]1C=C(CO)[C@@H](O)[C@H]1O [3-deazaneplanocin A]	primed the MSCs to a degree
Cc1cccc(-c2nn(C(=S)Nc3ccccc3)cc2-c2ccnc3ccccc23)n1 [A83-01]	primed the MSCs to a degree
Cc1c[nH]c(-c2cnc(NCCNc3ccc(C#N)cn3)nc2-c2ccc(Cl)cc2Cl)n1 [CHIR99021]	primed the MSCs to a degree
[Cl-].[Li+] [LiCl]	primed the MSCs to a degree
CC(C)n1nc(-c2cc3cc(O)ccc3[nH]2)c2c(N)ncnc21 [PP242]	primed the MSCs to a degree
Cc1cccc(-c2[nH]ncc2-c2ccc3ncccc3n2)n1 [RepSox]	primed the MSCs to a degree
NC(=O)c1ccc(-c2nc(-c3ccc4c(c3)OCO4)c(-c3ccccn3)[nH]2)cc1 [SB431542]	primed the MSCs to a degree
O=C(NCc1ccccc1)c1csc(Nc2ccncn2)n1 [Thiazovivin]	primed the MSCs to a degree
O=c1c(O)c(-c2ccc(O)c(O)c2)oc2cc(O)ccc12 [fistein]	primed the MSCs to a degree
CN(C)C(=N)N=C(N)N [metformin]	primed the MSCs to a degree
Oc1ccc(C=Cc2cc(O)cc(O)c2)cc1 [resveratrol]	primed the MSCs to a degree
CCCC(CCC)C(=O)O [valporic acid]	primed the MSCs to a degree

test system: MSCs; test: Protocol 3 differentiation of MSCs to hybrid cells with growth factors; type: cell-based; details: individually and in combination, as replacements or in combination with HGF and PDGF
Method: A shortened third protocol (Protocol 3) was examined and was also found to produce MSC-muscle cell hybrid cells. The MSCs were cultured in normal MSC culturing conditions followed by supplementation of the media for 24 hours with 5-AZA. The cells were than grown in media supplemented with 2% horse serum and HGF and PDGF for 2 weeks. […] The following growth factors were tested both individually and in combination as replacements or in combination with HGF and PDGF: EGF, IGF1, PDGFAA, PDGFBB, and VEGF. […] Additionally, the protocol could be halted by moving the treated MSCs to non-supplemented MSC media. Hybrid cells that were produced could thus be halted from further differentiation.
All three protocols were also performed with MSCs that had first undergone myogenic priming as described above.

Molecule	production of hybrid cells from MSCs
IGF1: growth factor	found to produce hybrid cells
PDGFAA: growth factor	found to produce hybrid cells
VEGF	found to produce hybrid cells
